{"source": "patent US10435399B2", "about": "“HDAC6 inhibitory heterocyclic compound” (TAKEDA PHARMACEUTICAL COMPANY LIMITED, priority 2017, dated 2019)", "key": {"HDAC6 enzyme": {"biological_target": "T1, HDAC6 enzyme (Homo sapiens, UniProt Q9UBN7)", "T1 construct": "transducing full length HDAC6 gene into Sf-9 insect cells; GST; purchased SignalChem; host or cells: Sf-9 insect cells", "T1 sequence (Q9UBN7 1-1215)": "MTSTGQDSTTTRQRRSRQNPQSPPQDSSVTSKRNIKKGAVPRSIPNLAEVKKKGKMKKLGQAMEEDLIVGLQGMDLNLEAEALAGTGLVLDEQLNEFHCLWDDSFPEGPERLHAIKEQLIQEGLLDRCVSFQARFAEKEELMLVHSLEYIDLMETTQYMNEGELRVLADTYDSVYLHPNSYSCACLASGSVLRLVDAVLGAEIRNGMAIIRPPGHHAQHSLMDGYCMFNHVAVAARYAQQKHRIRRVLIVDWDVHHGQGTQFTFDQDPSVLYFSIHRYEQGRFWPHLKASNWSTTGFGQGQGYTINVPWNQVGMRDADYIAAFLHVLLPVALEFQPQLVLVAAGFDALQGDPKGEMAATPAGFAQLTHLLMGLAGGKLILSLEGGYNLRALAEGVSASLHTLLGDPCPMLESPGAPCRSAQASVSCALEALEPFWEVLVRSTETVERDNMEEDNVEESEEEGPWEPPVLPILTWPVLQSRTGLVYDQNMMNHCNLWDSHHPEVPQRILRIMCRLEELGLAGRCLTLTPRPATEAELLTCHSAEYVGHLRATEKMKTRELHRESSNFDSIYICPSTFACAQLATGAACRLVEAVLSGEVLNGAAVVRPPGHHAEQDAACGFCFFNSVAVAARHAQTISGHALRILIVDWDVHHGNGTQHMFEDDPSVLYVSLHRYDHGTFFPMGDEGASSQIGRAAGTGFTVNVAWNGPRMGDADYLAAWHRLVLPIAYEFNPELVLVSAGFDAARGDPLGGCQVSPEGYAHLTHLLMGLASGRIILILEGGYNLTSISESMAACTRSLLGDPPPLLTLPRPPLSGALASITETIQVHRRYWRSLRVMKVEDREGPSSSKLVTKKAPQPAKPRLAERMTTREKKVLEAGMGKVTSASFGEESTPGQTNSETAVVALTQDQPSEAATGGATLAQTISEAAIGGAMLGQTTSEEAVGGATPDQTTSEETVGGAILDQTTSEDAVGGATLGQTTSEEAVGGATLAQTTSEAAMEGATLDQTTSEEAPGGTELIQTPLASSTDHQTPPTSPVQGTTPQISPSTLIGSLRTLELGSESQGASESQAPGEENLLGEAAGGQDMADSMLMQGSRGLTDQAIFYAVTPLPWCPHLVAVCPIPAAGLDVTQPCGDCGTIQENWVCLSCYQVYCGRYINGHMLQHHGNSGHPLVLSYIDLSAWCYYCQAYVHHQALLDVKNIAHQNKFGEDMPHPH", "experiment": "HDAC6 enzyme inhibitory activity (HDAC-Glo I/II Assay kit)", "assay_type": "biochemical", "conditions": "10 μM; wells without enzyme = 100% inhibition", "how_it_was_run": "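Luminescence read-out after 20 min reaction with HDAC-Glo substrate-developer, following 60 min room-temperature preincubation of compound with Sf-9-expressed, GST-purified full-length enzyme. Inhibition is relative to no-enzyme wells set as 100%.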"}, "[1]": {"system": "P301S mutant human tau (4R1N) Tg mouse", "experiment": "Cognitive improvement action in neurodegenerative disease model mouse (novel object recognition test)", "assay_type": "in vivo", "protocol": "Cognitive Improvement Action in Neurodegenerative Disease Model Mouse\nA drug was suspended in 0.5% methyl cellulose to prepare a suspension for administration. The suspension was repeatedly administered into six month-old male P301S mutant human tau (4R1N) Tg mouse once a day for three months, and novel object recognition test was performed by the following method. The test is comprised of memory acquisition trial of object on the first day, and memory retention trial of familiar object and novel object on the second day. Drug was administered into the mouse 1 hr before the trials on both days. For acquisition trial, The mouse was put in a test box (30 cm×30 cm×25 cm) in which two identical objects were placed, and contact frequency and contact duration with the objects for 5 min were measured under 50 lux. […] Next day, one of the objects was replaced with new object, and contact frequency and contact duration with each object for 5 min were measured. Novelty Discrimination Index (NDI) as an index of cognitive function was calculated by novel object contact […]/(novel object contact duration+familiar object contact duration)%. […] After F test for vehicle administration wild-type group and vehicle administration Tg group, the significant difference between the two groups was analyzed by Student t-test or Welch test (indicated as ** p<0.01). […]"}}, "data": [{"smiles": "O=C1c2cc(-c3nnc(C(F)F)o3)cnc2CN1[C@@H]1CCCC[C@H]1NC(=O)C(F)(F)C(F)(F)F", "note": "[Example 489, N-((1R,2R)-2-(3-(5-(difluoromethyl)-1,3,4-oxadiazol-2-yl)-5-oxo-5,7-dihydro-6H-pyrrolo[3,4-b]pyridin-6-yl)cyclohexyl)-2,2,3,3,3-pentafluoropropanamide]", "values": [{"measurement": "HDAC6 inhibitory rate (%) (10 μM)", "setting": "HDAC6 enzyme", "value": 99, "unit": "%"}, {"measurement": "Novelty Discrimination Index (NDI)", "setting": "[1]; 1 mg/kg once a day for three months", "value": "significant improvement in NDI was observed"}, {"measurement": "Novelty Discrimination Index (NDI)", "setting": "[1]; 3 mg/kg once a day for three months", "value": "significant improvement in NDI was observed"}]}]}
